Measured values: patent US5055484A, “7(1H-pyrrol-3-YL)-substituted 3,5-dihydroxyhept-6-enoic acids, 7-(1H-pyrrol-3-YL)-substituted 3,5-dihyroxyhept-anoic acids, their corresponding delta-lactones and salts, their use as medicaments and pharmaceutical products and intermediates” (Hoechst Aktiengesellschaft, priority 1987, dated 1991)

Experiments:
[1] = molecular target: T1, HMG--CoA reductase (Rattus norvegicus, UniProt P51639); assay: inhibition of HMG-CoA reductase activity on solubilized enzyme preparations from rat liver microsomes; format: biochemical
T1 sequence (P51639 1-887): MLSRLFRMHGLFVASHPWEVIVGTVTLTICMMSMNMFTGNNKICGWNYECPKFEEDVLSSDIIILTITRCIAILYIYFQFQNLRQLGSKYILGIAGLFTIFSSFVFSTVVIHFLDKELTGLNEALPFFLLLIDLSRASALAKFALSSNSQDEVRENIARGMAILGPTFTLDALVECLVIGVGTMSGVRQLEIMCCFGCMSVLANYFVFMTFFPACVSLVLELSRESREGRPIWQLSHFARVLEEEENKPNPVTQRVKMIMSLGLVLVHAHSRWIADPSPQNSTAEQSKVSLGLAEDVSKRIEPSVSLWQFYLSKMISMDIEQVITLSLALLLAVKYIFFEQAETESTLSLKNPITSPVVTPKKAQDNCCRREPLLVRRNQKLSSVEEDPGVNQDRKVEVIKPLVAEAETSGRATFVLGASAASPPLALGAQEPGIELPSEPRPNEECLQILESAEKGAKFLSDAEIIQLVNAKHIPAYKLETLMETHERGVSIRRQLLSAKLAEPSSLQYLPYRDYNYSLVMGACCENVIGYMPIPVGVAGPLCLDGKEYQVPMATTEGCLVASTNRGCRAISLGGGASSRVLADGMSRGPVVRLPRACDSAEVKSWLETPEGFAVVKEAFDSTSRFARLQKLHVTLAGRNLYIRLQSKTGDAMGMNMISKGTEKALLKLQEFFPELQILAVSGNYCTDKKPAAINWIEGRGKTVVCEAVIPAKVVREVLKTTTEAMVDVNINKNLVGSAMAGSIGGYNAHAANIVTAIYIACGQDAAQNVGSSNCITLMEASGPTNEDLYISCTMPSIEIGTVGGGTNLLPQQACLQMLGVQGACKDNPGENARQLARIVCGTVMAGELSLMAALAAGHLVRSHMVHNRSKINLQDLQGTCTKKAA
Procedure: The inhibition of HMG--CoA reductase activity by the compounds of the general formulae I and II was determined on solubilized enzyme preparations from rat liver microsomes.
After a changeover in the day/night rhythm of the rats, enzyme production was induced with cholestyramine (®Cuemid) The substrate used was (S,R) ^14 C--HMG--CoA, and the concentration of NADPH was maintained by a regenerating system during the incubation. ^14 C-mevalonate was removed from substrate and other products (for example ^14 C--HMG) by column elution, with the elution profile of each individual sample being determined. Inclusion of ^3 H-mevalonate throughout was dispensed with because the data to be determined were of the relative inhibitory effect. In each test series the enzyme-free control, the enzyme-containing normal mixture (=100%) and those with added products were treated together. Each individual value was formed as the mean of 3 parallel samples. The t test was used to assess the significance of the differences between the means for product-free and productcontaining samples.

[2] = system: cholesterol biosynthesis; assay: inhibition of cholesterol biosynthesis by incorporation of 14C-acetate into cholesterol in HEP G2 cell cultures; format: cell-based; details: for % potency relative to mevinolin sodium at IC70: comparison of IC70 with mevinolin sodium salt (internal standard)
Procedure: In addition, the inhibition of cholesterol biosynthesis by selected compounds was tested by the incorporation of ^14 C-precursor in cholesterol in cell cultures.
Monolayers of HEP G2 cells in lipoprotein-free nutrient medium were preincubated with various concentrations of the test substances for 1 hour. The ^14 C-labeled precursor sodium ^14 C-acetate was added, and the incubation was then continued for 3 hours. Subsequently 3H-cholesterol was added as internal standard, and a portion of these cells underwent alkaline hydrolysis. The lipids from the hydrolyzed cells were extracted with chloroform/methanol. Carrier cholesterol was added to this lipid mixture which was then subjected to preparative thin-layer chromatography, the cholesterol band was visualized with iodine vapor and then isolated, and the amount of ^14 C-cholesterol formed from the ^14 C-precursor was determined by scintigraphy. Cellular protein was determined in an aliquot of the cells, so that the amount of ^14 C-cholesterol formed from ^14 C-precursor in unit time per mg of cellular protein can be calculated. The solvent control is used for comparison of the inhibitory effect of an added test product, so that it is possible to state directly the inhibition of cholesterol biosynthesis at a particular molar concentration of the test product in the medium. The integrity of the cell culture and the absence of cell damage due to exposure to the products was checked morphologically (light microscope) in an aliquot of the cell cultures. […] The relative potency was determined by comparing the IC70 values and IC50 values for the test compound and for mevinolin sodium salt (internal standard).

[3] = HEP G2 cells, 1 h preincubation, 3 h with 14C-acetate

SMILES	IC50 [1]	also measured
COC(=O)C[C@H](O)C[C@H](O)CCc1c(-c2ccc(F)cc2)cn(-c2ccccc2)c1C(C)C (racemic) [Example 13, Methyl 3(RS),5(RS)-dihydroxy-7-[1-phenyl-2-isopropyl-4(4-fluorophenyl)-1H-pyrrol-3-yl]heptanoate]	15 nM	
COC(=O)C[C@H](O)C[C@H](O)/C=C/c1c(-c2ccc(F)cc2)c(C)n(-c2ccccc2)c1C (relative stereo) [Example 1, methyl 3(RS),5(SR)-dihydroxy-7-[1-phenyl-2,5-dimethyl-4-(4-fluorophenyl)-1H-pyrrol-3-yl]hept-6(E)-enoate]	320 nM	% potency relative to mevinolin sodium at IC70 [2, 3]: 180%
COC(=O)C[C@H](O)C[C@H](O)/C=C/c1c(-c2ccc(F)cc2)c(C)n(-c2ccccc2)c1C(C)C (relative stereo) [Example 5, Methyl 3(RS),5(SR)-dihydroxy-7-[1-phenyl-2-isopropyl-4-(4-fluorophenyl)-5-methyl-1H-pyrrol-3-yl]hept-6(E)-enoate]	7 nM	
CC[C@H](C)C(=O)O[C@H]1C[C@@H](C)C=C2C=C[C@H](C)[C@H](CC[C@@H](O)C[C@@H](O)CC(=O)O)[C@H]21 [mevinolin sodium, reference compound]		IC70 ([2]; Homo sapiens, HepG2): 150 nM; IC50 ([2]; Homo sapiens, HepG2, HEP G2 cells, mean figure, varies somewhat from cell culture to cell culture): 50 nM
COC(=O)C[C@H](O)C[C@H](O)CCc1c(-c2ccc(F)cc2)c(C)n(-c2ccccc2)c1C(C)C (racemic) [Example 7, Methyl 3(RS),5(RS)-dihydroxy-7-[1-phenyl-2-isopropyl-4-(4-fluorophenyl)-5-methyl-1H-pyrrol-3-yl]heptanoate]	8 nM	
Cc1c(/C=C/[C@@H](O)C[C@@H](O)CC(=O)O)c(-c2ccc(F)cc2)c(C)n1-c1ccccc1 (relative stereo) [Example 2, Sodium 3(RS),5(SR)-dihydroxy-7-[1-phenyl-2,5-dimethyl-4-(4-fluorophenyl)-1H-pyrrol-3-yl]hept-6(E)-enoate]	120 nM	
COC(=O)C[C@H](O)C[C@H](O)CCc1c(-c2ccc(F)cc2)c(C)n(-c2ccccc2)c1C (racemic) [Example 3, Methyl 3(RS),5(RS)-dihydroxy-7-[1-phenyl-2,5-dimethyl-4-(4-fluorophenyl)-1H-pyrrol-3-yl]heptanoate]	80 nM	
Cc1c(-c2ccc(F)cc2)c(CC[C@@H](O)C[C@@H](O)CC(=O)O)c(C(C)C)n1-c1ccccc1 (racemic) [Example 8, Sodium 3(RS),5(RS)-dihydroxy-7-[1-phenyl-2-isopropyl-4-(4-fluorophenyl)-5-methyl-1H-pyrrol-3-yl]heptanoate]	2.5 nM	
COC(=O)C[C@H](O)C[C@H](O)/C=C/c1c(-c2ccc(F)cc2)cn(-c2ccccc2)c1C (relative stereo) [Example 9, methyl 3(RS),5(SR)-dihydroxy-7-[1-phenyl-2-methyl-4-(4-fluorophenyl)-1H-pyrrol-3-yl]hept-6(E)-enoate]	120 nM	
COC(=O)C[C@H](O)C[C@H](O)/C=C/c1c(-c2ccc(F)cc2)cn(-c2ccccc2)c1C(C)C (relative stereo) [Example 11, methyl 3(RS),5(SR)-dihydroxy-7-[1-phenyl-2-isopropyl-4-(4-fluorophenyl)-1H-pyrrol-3-yl]hept-6(E)-enoate]	8 nM	
CC(C)c1c(CC[C@@H](O)C[C@@H](O)CC(=O)[O-])c(-c2ccc(F)cc2)cn1-c1ccccc1.[Na+] (racemic) [Example 14, Sodium 3(RS),5(RS)-dihydroxy-7-[1-phenyl-2-isopropyl-4-(4-fluorophenyl)-1H-pyrrol-3-yl]heptanoate]	3 nM	% potency relative to mevinolin sodium at IC70 [2, 3]: 150%
Cc1c(CC[C@@H](O)C[C@@H](O)CC(=O)[O-])c(-c2ccc(F)cc2)c(C)n1-c1ccccc1.[Na+] (racemic) [Example 4, Sodium 3(RS),5(RS)-dihydroxy-7-[1-phenyl-2,5-dimethyl-4-(4-fluorophenyl)-1H-pyrrol-3-yl]heptanoate]	8.7 nM	% potency relative to mevinolin sodium at IC50 ([2]; HEP G2 cells, 1 h preincubation, 3 h with 14C-acetate, comparison of IC50 with mevinolin sodium salt (internal standard)): 450%; % potency relative to mevinolin sodium at IC70 [2, 3]: 51%

Further lines, with some results ahead:

IC50 [1]	SMILES	also measured
100 nM	COC(=O)C[C@H](O)C[C@H](O)CCc1c(-c2ccc(F)cc2)cn(C(C)C)c1C (racemic) [Example 17, Methyl 3(RS),5(RS)-dihydroxy-7-[1-isopropyl-2-methyl-4-(4-fluorophenyl)-1H-pyrrol-3-yl]heptanoate]	
50 nM	Cc1c(CC[C@@H](O)C[C@@H](O)CC(=O)O)c(-c2ccc(F)cc2)cn1C(C)C (racemic) [Example 18, Sodium 3(RS),5(RS)-dihydroxy-7-[1-isopropyl-2-methyl-4-(4-fluorophenyl)-1H-pyrrol-3-yl]heptanoate]	
70 nM	COC(=O)C[C@H](O)C[C@H](O)/C=C/c1c(-c2ccc(F)cc2)cn(C(C)C)c1C (relative stereo) [Example 15, methyl 3(RS),5(SR)-dihydroxy-7-[1-isopropyl-2-methyl-4-(4-fluorophenyl)-1H-pyrrol-3-yl]hept-6(E)-enoate]	
12 nM	CC(C)c1c(/C=C/[C@@H](O)C[C@@H](O)CC(=O)O)c(-c2ccc(F)cc2)cn1C1CCCCC1 (relative stereo) [Example 20, Sodium 3(RS),5(SR)-dihydroxy-7-[1-cyclohexyl-2-isopropyl-4(4-fluorophenyl)-1H-pyrrol-3-yl]hept-6(E)-enoate]	
3 nM	CC(C)c1c(CC[C@@H](O)C[C@@H](O)CC(=O)O)c(-c2ccc(F)cc2)cn1C(C)C (racemic) [Example 26, Sodium 3(RS),5(RS)-dihydroxy-7-[1,2-diisopropyl-4-(4-fluorophenyl)-1H-pyrrol-3-yl]heptanoate]	
160 nM	Cc1c(/C=C/[C@@H](O)C[C@@H](O)CC(=O)O)c(-c2ccc(F)cc2)cn1C(C)C (relative stereo) [Example 16, Sodium 3(RS),5(SR)-dihydroxy-7-[1-isopropyl-2-methyl-4-(4-fluorophenyl)-1H-pyrrol-3-yl]hept-6(E)-enoate]	
